In patent US20110136867A1, “Treatment of Synucleinopathies” (priority 2006, published 2011):

Assays:
α-synuclein [1] = assay: Immunostaining for human α-synuclein in brain sections of α-synuclein transgenic mice; type: in vivo; details: 90 days, vs vehicle
Procedure: (§1) Farnesyl transferase inhibitors Zarnestra and OSI-754 were administered to mice of the α-synuclein transgenic line described in Masliah et al. (Masliah et al. “Dopaminergic loss and inclusion body formation in alpha-synuclein mice: implications for neurodegenerative disorders” Science 287(5456):1265-69, 2000; incorporated herein by reference). Animals from this line have α-synuclein neuronal inclusions in the cortex, hippocampus, and the olfactory bulb (Masliah et al. “Dopaminergic loss and inclusion body formation in alpha-synuclein mice: implications for neurodegenerative disorders” Science 287(5456):1265-69, 2000; incorporated herein by reference). Transgenic mice were orally administered either FTI in 20% cyclodextrin solution or the same volume of vehicle alone twice a day for 30 or 90 days. In some cases, non-transgenic mice also received vehicle twice a day for 30 to 90 days. At the end of treatment, mice were sacrificed, and the brains removed and hemisected. One hemisphere of each was fixed in 4% paraformaldehyde/PBS (pH 7.4), cryoperserved, then sectioned for histology. The other hemisphere was subdivided into four brain regions, including the cortex and hippocampus, that were homogenized and processed into cytoplasmic and membrane fractions.
Formation of α-synuclein inclusions in the cortex and hippocampus was probed by immunostaining with an antibody for human α-synuclein. Cells positive for human α-synuclein were quantified. […] These regions were also analyzed for ubiquitin-immunoreactive inclusions and by the Campbell Switzer method of silver staining. Ubiquitin is known to be a constituent of Lewy Bodies and in the α-synculein inclusions found in the transgenic mouse line used in the study (Masliah et al. “Dopaminergic loss and inclusion body formation in alpha-synuclein mice: implications for neurodegenerative disorders” Science 287(5456):1265-69, 2000; incorporated herein by reference). […] Campbell-Switzer staining is a general marker of Lewy Body type inclusions (Uchihara et al. “Silver stainings distinguish Lewy bodies and glial cytoplasmic inclusions: comparison between Gallyas-Braak and Campbell-Switzer methods” Acta Neuropathol. (Berl.) 110(3):255-60, 2005; incorporated herein by reference).

α-synuclein [2] = assay: Sandwich ELISA of total α-synuclein in brain fractions of α-synuclein transgenic mice; type: in vivo; details: vs vehicle
Procedure: as §1
Total α-synuclein levels were analyzed by a sandwich ELISA assay similar to one previously described (El-Agnaf et al. “Detection of oligomeric forms of alpha-synuclein protein in human plasma as a potential biomarker for Parkinson's disease” FASEB J. 20(3):419-25, 2006; incorporated herein by reference). In the cortex of vehicle treated animals, α-synuclein protein levels in the α-synuclein transgenic line are greater than in non-transgenic mice in both cytoplasmic (FIG. 10) and membrane fractions (FIG. 11).

[3] = system: Neuronal Specific Nuclear Protein (NeuN); assay: NeuN staining of cortex and hippocampus of α-synuclein transgenic mice; type: in vivo; details: 90 days of treatment
Procedure: (§2) Farnesyl transferase inhibitors Zarnestra and OSI-754 were administered to mice of the α-synuclein transgenic line described in Masliah et al. (Masliah et al. “Dopaminergic loss and inclusion body formation in alpha-synuclein mice: implications for neurodegenerative disorders” Science 287(5456):1265-69, 2000; incorporated herein by reference). Animals from this line have α-synuclein neuronal inclusions in the cortex, hippocampus, and the olfactory bulb (Masliah et al. “Dopaminergic loss and inclusion body formation in alpha-synuclein mice: implications for neurodegenerative disorders” Science 287(5456):1265-69, 2000; incorporated herein by reference). Transgenic mice were orally administered either FTI in 20% cyclodextrin solution or the same volume of vehicle alone twice a day for 30 or 90 days. In some cases, non-transgenic mice also received vehicle twice a day for 30 to 90 days. At the end of treatment, mice were sacrificed, and the brains removed and hemisected. One hemisphere of each was fixed in 4% paraformaldehyde/PBS (pH 7.4), cryoperserved, then sectioned for histology. […]
Formation of α-synucleininclusions in the cortex and hippocampus was probed by immunostaining with an antibody for human α-synuclein. Cells positive for human α-synuclein were quantified. […]

farnesylated UCH-L1 = assay: Quantitative Western Blot of farnesylated UCH-L1 in cortex membrane fraction of α-synuclein transgenic mice; type: in vivo; details: 45 mg/kg twice a day, 30 days
Procedure: as §2
Farnesylated UCH-L1 in the cortex is contained in the membrane fraction. The amount of UCH-L1 was determined by quantitative Western Blot.
Total α-synuclein levels were analyzed by a sandwich ELISA assay. […] The amount of farnesylated UCH-L1 was determined by quantitative Western Blot, then normalized to actin.

α-synuclein [4] = assay: α-synuclein degradation assay in transfected COS-7 cells (quantitative Western blotting); type: cell-based; details: transfected COS-7 cells, 35 μM lactacystin, 24 hours
Excerpt: Plasmids: C220S cDNA was generated by PCR site-specific mutagenesis. For the PCR, the 5′ primer is uchforw SEQ ID NO: 1 ([…]), and 3′ primer is uchc220s SEQ ID NO:2 (CTAAGA […]). Wt UCH-L1 served as the template. The PCR fragment was inserted into pcDNA vector. For S18YC220S mutant, S18Y UCH-L1 served as the template in PCR. For the FLAG tagged UCH-L1, the 5′ primer is FLAGuchforw SEQ ID NO: 3 ([…] CGATGGAG), and the 3′ primer is uchrev SEQ ID NO: 4 ([…]). Wt UCH-L1 or C220S served as the template. PCR fragment was purified and inserted into pcDNA vector. For the FLAG tagged UCH-L3, the 5′ primer is L3HindIII SEQ ID NO: 5 (CTAAAGCTTATGGACTAC […]), the 3′primer is L3XhoISAA SEQ ID NO: 6 ([…]). […] After 24 hours of incubation, the cells were lysed with Tris buffer (50 mM Tris, 2% SDS, 0.1% NP-40), and subjected to SDS-PAGE, followed by quantitative Western blotting.
Western Blotting: Following transfer of SDS gels onto NC membrane, all membranes were blocked with 5% non-fat milk in TBST (50 mM Tris-HCl pH7.4, 150 mM NaCl, 0.1% Tween 20), and incubated with primary antibody overnight with 1% BSA in TBST, washed three times with TBST, and incubated with horseradish peroxidase-conjugated secondary antibody for 1 hour (Promega). Bound antibodies were detected using enhanced chemiluminascence (NEM). […]

[5] = cortex, 45 mg/kg twice a day, 30 days

| SMILES | α-synuclein-positive cells per mm^2 (α-synuclein [1]; cortex, 9 mg/kg twice a day) | α-synuclein-positive cells per mm^2 (α-synuclein [1]; cortex, 45 mg/kg twice a day) | α-synuclein-positive cells per mm^2 (α-synuclein [1]; hippocampus, 9 mg/kg twice a day) | α-synuclein-positive cells per mm^2 (α-synuclein [1]; hippocampus, 45 mg/kg twice a day) | α-synuclein protein levels, cytoplasmic fraction (α-synuclein [2]; cortex, 9 mg/kg twice a day, 90 days) | α-synuclein protein levels, cytoplasmic fraction (α-synuclein [2]; [5]) | α-synuclein protein levels, membrane fraction (α-synuclein [2]; [5]) | α-synuclein protein levels, cytoplasmic fraction (α-synuclein [2]; cortex, 45 mg/kg twice a day, 90 days) | α-synuclein protein levels, membrane fraction (α-synuclein [2]; hippocampus, 9 mg/kg twice a day, 90 days) | α-synuclein protein levels, membrane fraction (α-synuclein [2]; hippocampus, 45 mg/kg twice a day, 90 days) | neuronal morphology or density (NeuN staining) [3] | amount of farnesylated UCH-L1, normalized to actin (farnesylated UCH-L1) | accumulation of α-synuclein (16 KDa, normalized against actin) (α-synuclein [4]) [%] |
| --- | --- | --- | --- | --- | --- | --- | --- | --- | --- | --- | --- | --- | --- |
| C#Cc1cccc(-c2cc(=O)n(C)c3ccc(C(O)(c4ccc(Cl)cc4)c4cncn4C)cc23)c1 (stereo not shown) [OSI-754] | fewer | fewer | fewer | fewer | lower α-synuclein protein levels | lower α-synuclein protein levels | lower α-synuclein protein levels | lower α-synuclein protein levels | lower α-synuclein protein levels | lower α-synuclein protein levels | did not affect neuronal morphology or density | decreased the amount of farnesylated UCH-L1 |  |
| CC(=O)N[C@@H](CSC(=O)[C@]1([C@@H](O)C(C)C)NC(=O)[C@H](C)[C@@H]1O)C(=O)O [lactacystin] |  |  |  |  |  |  |  |  |  |  |  |  | 100 |
